For six compounds, IC50 and Ki results are on record in ChEMBL document CHEMBL1909046, “DrugMatrix in vitro pharmacology data”.

In series [1] the target is Voltage-gated inwardly rectifying potassium channel KCNH2 (Homo sapiens, UniProt Q12809). The following applies: hek293. Further: in other assays of this panel Not Active means under 50% inhibition at 10 µM.
Series [2] has as its target T1, Cholecystokinin receptor type A (Homo sapiens, UniProt P32238). Further: in other assays of this panel Not Active means under 50% inhibition at 10 µM.
T1 sequence (P32238 whole entry): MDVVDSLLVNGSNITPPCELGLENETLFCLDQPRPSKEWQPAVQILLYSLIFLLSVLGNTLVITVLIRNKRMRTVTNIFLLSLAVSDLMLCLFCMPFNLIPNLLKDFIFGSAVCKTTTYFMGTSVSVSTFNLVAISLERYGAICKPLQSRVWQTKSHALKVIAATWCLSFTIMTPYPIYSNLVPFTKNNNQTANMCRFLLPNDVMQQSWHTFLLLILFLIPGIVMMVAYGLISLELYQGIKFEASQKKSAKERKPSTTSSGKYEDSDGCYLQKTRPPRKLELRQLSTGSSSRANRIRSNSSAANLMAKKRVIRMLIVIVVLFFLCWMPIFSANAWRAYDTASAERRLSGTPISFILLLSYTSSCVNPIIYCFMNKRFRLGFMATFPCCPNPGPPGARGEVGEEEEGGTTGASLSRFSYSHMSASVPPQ
The series is classed as cell membranes, Membrane. The note with it: 1321-n1.

The target of series [3] is Platelet-activating factor receptor (Homo sapiens, UniProt P25105). The series is classed as tissue-based. Further: in other assays of this panel Not Active means under 50% inhibition at 10 µM.
Chain of Platelet-activating factor receptor (P25105 whole entry): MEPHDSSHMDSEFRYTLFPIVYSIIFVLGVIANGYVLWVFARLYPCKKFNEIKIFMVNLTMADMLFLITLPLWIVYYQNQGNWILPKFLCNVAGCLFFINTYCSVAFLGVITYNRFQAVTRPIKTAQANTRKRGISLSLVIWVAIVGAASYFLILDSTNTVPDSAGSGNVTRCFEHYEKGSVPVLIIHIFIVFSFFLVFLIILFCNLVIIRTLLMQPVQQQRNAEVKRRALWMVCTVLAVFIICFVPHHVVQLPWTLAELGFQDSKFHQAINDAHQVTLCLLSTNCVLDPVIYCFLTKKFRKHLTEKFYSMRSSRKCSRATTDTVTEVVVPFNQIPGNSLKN
Series [4] in a line: DRUGMATRIX: Tumor Necrosis Factor (TNF), Non-Selective radioligand binding (ligand: [125I] TNF-alpha). The series is classed as cell membranes, Membrane. The note with it: u-937; Not Active = under 50% inhibition at 10 µM.
The nature of series [5]: DRUGMATRIX: Glutamate, NMDA, Agonism radioligand binding (ligand: [3H] CGP-39653). In kind it is cell membranes, Rattus norvegicus, Wistar, Cerebral cortex, Membrane. The following applies: Not Active = under 50% inhibition at 10 µM.
The target in series [6] is T2, Cytochrome P450 1A2 (Homo sapiens, UniProt P05177). Further: in other assays of this panel Not Active means under 50% inhibition at 10 µM.
T2 sequence (P05177 whole entry): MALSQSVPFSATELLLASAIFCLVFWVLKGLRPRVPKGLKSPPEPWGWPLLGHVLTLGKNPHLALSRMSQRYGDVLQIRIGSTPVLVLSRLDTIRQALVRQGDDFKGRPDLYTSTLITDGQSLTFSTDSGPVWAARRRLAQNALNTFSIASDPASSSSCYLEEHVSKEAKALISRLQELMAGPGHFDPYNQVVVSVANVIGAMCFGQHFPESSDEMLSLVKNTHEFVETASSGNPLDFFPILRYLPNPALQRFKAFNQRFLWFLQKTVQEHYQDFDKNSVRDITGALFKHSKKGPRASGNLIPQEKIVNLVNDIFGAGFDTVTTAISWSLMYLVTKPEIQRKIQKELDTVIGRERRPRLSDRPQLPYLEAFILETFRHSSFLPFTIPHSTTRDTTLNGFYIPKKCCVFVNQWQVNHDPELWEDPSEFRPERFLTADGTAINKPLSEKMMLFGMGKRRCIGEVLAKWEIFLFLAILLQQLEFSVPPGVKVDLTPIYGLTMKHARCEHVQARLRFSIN
The following applies: bti-tn-5b1-4.

Series [7] deals with D(1A) dopamine receptor (Homo sapiens, UniProt P21728). Put plainly: DRUGMATRIX: Dopamine D1 radioligand binding (ligand: [3H] SCH-23390). The following applies: cho; Not Active = under 50% inhibition at 10 µM. In kind it is cell membranes, Membrane.
Chain of D(1A) dopamine receptor (P21728 whole entry): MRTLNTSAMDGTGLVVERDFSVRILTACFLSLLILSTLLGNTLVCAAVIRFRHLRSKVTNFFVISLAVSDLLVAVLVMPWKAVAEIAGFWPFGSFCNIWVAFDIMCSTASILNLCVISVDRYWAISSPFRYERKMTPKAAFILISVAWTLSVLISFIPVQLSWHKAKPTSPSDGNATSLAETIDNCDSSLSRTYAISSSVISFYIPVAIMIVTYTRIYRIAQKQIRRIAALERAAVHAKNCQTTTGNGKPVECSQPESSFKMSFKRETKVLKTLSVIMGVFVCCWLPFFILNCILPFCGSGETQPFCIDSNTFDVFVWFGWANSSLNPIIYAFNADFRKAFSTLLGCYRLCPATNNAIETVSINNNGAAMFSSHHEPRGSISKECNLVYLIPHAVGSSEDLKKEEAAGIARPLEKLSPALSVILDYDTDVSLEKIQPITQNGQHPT
Series [8] addresses Histamine H2 receptor (Homo sapiens, UniProt P25021). The series is classed as cell membranes, CHO-K1, Membrane. The following applies: cho-k1.
The target in series [9] is T3, Alpha-1D adrenergic receptor (Homo sapiens, UniProt P25100). Further: in other assays of this panel Not Active means under 50% inhibition at 10 µM.
T3 sequence (P25100 whole entry): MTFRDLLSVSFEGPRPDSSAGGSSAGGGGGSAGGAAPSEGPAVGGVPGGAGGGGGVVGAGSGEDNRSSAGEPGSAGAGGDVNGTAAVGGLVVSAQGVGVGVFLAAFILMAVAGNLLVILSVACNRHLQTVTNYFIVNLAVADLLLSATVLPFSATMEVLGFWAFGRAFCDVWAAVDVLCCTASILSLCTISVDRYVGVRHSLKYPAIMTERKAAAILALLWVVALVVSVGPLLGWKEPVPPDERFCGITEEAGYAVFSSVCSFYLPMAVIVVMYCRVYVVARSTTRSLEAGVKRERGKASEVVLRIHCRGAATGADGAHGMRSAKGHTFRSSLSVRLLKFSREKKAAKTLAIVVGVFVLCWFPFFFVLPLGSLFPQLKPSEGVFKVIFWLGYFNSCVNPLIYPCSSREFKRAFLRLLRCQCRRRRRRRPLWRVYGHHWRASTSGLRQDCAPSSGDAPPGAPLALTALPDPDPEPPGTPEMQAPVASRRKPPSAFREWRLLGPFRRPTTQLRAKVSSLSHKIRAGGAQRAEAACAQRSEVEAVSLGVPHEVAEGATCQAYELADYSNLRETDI
In kind it is cell membranes, HEK293, Membrane. The following applies: hek293.

Series [10] addresses Sodium-dependent noradrenaline transporter (Homo sapiens, UniProt P23975). Description: DRUGMATRIX: Norepinephrine Transporter radioligand binding (ligand: [125I] RTI-55). The following applies: Not Active = under 50% inhibition at 10 µM; for Ki: read-out: Ki. In kind it is cell membranes, MDCK, Membrane.

SMILES strings stand for the structures.

Chain of Voltage-gated inwardly rectifying potassium channel KCNH2 (Q12809 whole entry): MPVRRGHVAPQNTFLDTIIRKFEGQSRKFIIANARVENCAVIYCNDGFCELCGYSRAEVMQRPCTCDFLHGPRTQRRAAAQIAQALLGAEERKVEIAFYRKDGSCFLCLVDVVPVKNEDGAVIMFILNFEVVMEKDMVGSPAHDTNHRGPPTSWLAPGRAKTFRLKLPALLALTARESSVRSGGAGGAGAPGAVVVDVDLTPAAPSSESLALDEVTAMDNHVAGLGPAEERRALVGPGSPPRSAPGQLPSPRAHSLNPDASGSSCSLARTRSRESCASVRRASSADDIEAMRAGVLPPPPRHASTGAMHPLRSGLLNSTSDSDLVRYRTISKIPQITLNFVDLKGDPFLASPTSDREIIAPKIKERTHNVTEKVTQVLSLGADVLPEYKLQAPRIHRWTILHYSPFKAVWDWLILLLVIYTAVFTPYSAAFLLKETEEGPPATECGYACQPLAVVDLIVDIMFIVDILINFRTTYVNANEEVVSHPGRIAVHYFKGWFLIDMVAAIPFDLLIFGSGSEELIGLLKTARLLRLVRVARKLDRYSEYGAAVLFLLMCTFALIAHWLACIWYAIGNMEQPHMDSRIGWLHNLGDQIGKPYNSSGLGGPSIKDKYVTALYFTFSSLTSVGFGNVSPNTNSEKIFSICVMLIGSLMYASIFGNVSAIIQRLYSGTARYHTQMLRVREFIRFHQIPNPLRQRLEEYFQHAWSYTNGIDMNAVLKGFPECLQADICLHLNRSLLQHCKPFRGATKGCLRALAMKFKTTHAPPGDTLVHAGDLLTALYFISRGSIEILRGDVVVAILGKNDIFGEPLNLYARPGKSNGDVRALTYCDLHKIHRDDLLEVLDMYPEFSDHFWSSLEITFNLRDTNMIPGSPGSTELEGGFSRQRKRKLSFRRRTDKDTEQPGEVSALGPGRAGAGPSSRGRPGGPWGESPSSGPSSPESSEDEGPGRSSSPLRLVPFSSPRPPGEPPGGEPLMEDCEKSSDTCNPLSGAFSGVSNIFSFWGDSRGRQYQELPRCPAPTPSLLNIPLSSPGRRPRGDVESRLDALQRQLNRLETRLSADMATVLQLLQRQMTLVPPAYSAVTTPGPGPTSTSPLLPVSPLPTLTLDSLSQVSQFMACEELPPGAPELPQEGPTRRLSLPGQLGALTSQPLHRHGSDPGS
Chain of Histamine H2 receptor (P25021 whole entry): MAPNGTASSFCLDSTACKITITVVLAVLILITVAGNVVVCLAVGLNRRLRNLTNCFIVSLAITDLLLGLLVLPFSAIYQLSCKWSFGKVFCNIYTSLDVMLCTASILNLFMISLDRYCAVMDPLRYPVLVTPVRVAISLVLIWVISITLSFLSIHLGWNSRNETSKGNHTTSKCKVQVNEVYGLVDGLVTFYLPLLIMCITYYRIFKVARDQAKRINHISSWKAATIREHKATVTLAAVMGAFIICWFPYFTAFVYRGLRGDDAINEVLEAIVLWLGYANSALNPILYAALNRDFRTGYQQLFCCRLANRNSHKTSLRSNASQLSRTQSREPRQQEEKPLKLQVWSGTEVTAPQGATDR
Chain of Sodium-dependent noradrenaline transporter (P23975 whole entry): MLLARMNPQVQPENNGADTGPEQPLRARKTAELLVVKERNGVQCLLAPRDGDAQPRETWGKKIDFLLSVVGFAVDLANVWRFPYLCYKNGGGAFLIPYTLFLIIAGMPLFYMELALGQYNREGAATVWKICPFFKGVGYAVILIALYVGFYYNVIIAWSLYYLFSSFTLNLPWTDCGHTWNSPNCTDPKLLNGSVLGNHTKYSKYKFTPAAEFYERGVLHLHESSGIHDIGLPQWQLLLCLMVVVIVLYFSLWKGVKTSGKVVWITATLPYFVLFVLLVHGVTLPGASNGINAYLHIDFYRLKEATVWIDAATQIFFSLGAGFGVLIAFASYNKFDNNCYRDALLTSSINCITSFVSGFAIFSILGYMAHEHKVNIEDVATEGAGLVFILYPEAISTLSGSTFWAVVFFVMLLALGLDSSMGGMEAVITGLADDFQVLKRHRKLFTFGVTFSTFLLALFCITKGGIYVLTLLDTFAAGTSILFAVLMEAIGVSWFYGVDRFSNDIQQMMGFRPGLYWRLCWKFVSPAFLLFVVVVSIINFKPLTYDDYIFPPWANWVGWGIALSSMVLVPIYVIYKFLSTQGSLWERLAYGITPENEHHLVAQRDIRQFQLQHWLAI

As for `Cc1cccc(Nc2ccncc2S(=O)(=O)NC(=O)NC(C)C)c1` [TORSEMIDE], the half-inhibitory concentration (IC50) entry in [1], in series [2], in [3], in series [4], in series [5] and in [6] was “Not Active” each time. Besides, the IC50 result in series [7], in series [8], in series [9] and in series [10] (mdck) was “Not Active” throughout. In addition, the inhibition constant (Ki) result in [1], in series [4], in [5] and in series [6] was “Not Active” in each case.
As to `CC(C)C[C@H](NC(=O)[C@@H](O)[C@H](N)Cc1ccccc1)C(=O)O` [UBENIMEX], the IC50 result in series [1], in series [2], in [3], in series [4], in series [5] and in series [6] was “Not Active” in each case. The IC50 entry in series [7], in series [8], in series [9] and in series [10] (mdck) was “Not Active” in each case. Also, the inhibition constant (Ki) result in series [1], in series [4], in series [5] and in series [6] was “Not Active” throughout.
As for `Cc1onc(-c2ccccc2)c1-c1ccc(S(N)(=O)=O)cc1` [VALDECOXIB], the half-inhibitory concentration (IC50) entry in series [1], in series [2], in [3], in series [4], in series [5] and in series [6] was “Not Active” throughout. Also, the IC50 result in series [7] is “Not Active”; in [8] it was “Not Active”; in series [9] it was “Not Active”; in [10] (read-out: IC50), 2.93 µM. Moreover, the inhibition constant (Ki) result is “Not Active” in [1]; “Not Active” in series [4]; “Not Active” in series [5]; “Not Active” in [6]; 2.9 µM in [10].
`CC[C@]1(O)C[C@@H]2CN(CCc3c([nH]c4ccccc34)[C@@](C(=O)OC)(c3cc4c(cc3OC)N(C)[C@H]3[C@@](O)(C(=O)OC)[C@H](OC(C)=O)[C@]5(CC)C=CCN6CC[C@]43[C@@H]65)C2)C1` [VINBLASTINE]: the half-maximal inhibitory concentration (IC50) result in [1], in series [2], in [3], in [4], in series [5] and in series [6] was “Not Active” in each case. Also, the IC50 entry in series [7], in series [8], in [9] and in series [10] (mdck) was “Not Active” throughout. For the same compound, the inhibitory constant (Ki) result in series [1], in [4], in series [5] and in series [6] was “Not Active” each time.
Regarding `CC(=O)CC(c1ccccc1)c1c(O)c2ccccc2oc1=O` (stereo unspecified) [WARFARIN], the IC50 result in series [1], in series [2], in [3], in [4], in [5] and in series [6] was “Not Active” each time. Also, the IC50 result in [7], in [8], in series [9] and in [10] (mdck) was “Not Active” throughout. For the same compound, the inhibitory constant (Ki) result in series [1], in series [4], in series [5] and in series [6] was “Not Active” throughout.
`[Cl-].[Cl-].[Zn+2]` [ZINC CHLORIDE]: the half-inhibitory concentration (IC50) result in series [1], in [2], in series [3], in series [4], in series [5] and in [6] was “Not Active” in each case. Also, the IC50 result in [7] is “Not Active”; in series [8], “Not Active”; in [9] it was “Not Active”; in series [10] (read-out: IC50), 7.01 µM. The Ki result in series [1] was “Not Active”; in [4], “Not Active”; in [5] it was “Not Active”; in series [6] it was “Not Active”; in series [10] it was 6.95 µM.
